The NIST ThermoML archive (doi:10.1016/j.tca.2011.02.027)

Test: molar heat capacity at constant pressure; xn = mol fraction of the nth substance listed
Settings: 101.3 kPa, Liquid, Large sample (1 g) DSC

CCCCn1cc[n+](C)c1.[Br-] [1-butyl-3-methylimidazolium bromide] + O
molar heat capacity at constant pressure [J/K/mol]
Settings	x1 = 0.1	x1 = 0.2	x1 = 0.3	x1 = 0.4	x1 = 0.5	x1 = 0.6	x1 = 1
303.2 K	102.2	123.4	144.5	165	186.7	209.6	–
308.2 K	102.5	124.1	145.4	166.1	188	211.2	–
313.2 K	103	124.9	146.3	167.1	189.2	212.9	–
318.2 K	103.5	125.8	147.2	168.1	190.7	214.5	–
323.2 K	104	126.6	148.2	169.2	191.8	216.2	–
328.2 K	104.5	127.5	149.2	170.4	193.3	217.9	–
333.2 K	104.8	128.3	150.1	171.6	194.6	219.5	–
338.2 K	105.4	129.2	151.1	172.9	196.1	221.3	–
343.2 K	105.8	130	152.1	173.9	197.3	223.1	–
348.2 K	106.3	131.1	153.1	175.2	198.6	224.9	–
353.2 K	106.8	131.9	154.1	176.2	200	226.5	334.8
358.2 K	–	–	–	–	–	–	338.1
363.2 K	–	–	–	–	–	–	341.1
368.2 K	–	–	–	–	–	–	344.6
373.2 K	–	–	–	–	–	–	347.5
378.2 K	–	–	–	–	–	–	350.6
383.2 K	–	–	–	–	–	–	354.1
388.2 K	–	–	–	–	–	–	356.7
393.2 K	–	–	–	–	–	–	359.9
398.2 K	–	–	–	–	–	–	363.4
403.2 K	–	–	–	–	–	–	366.4
